{"source": "patent US11274131B2", "about": "“IgM-mediated receptor clustering and cell modulation” (MAYO FOUNDATION FOR MEDICAL EDUCATION AND RESEARCH, priority 2007, dated 2022)", "key": {"[1]": {"test_system": "matured human monocyte-derived DC", "test": "Antigen uptake assay, matured human DC", "type": "cell-based", "settings": "matured human DC, OVA-FITC", "procedure": "FIGS. 2A to 2G are a series of pictures showing that a kinase activated pathway regulates antibody-induced antigen uptake by matured DC. Matured human monocyte-derived DC were treated with the MTAb B7-DC XAb for varying time periods and evaluated for the phosphorylation status of select signaling pathway intermediates by immunoprecipitation with DAP12 (MC457), Syk (4D10), and PLCγ1 (MC490) reactive antibodies followed by western blot analysis using the phosphotyrosine reactive antibody 4G10 as a probe (FIGS. 2A-2C). Samples of the cells blocked with indicated concentration of piceatannol (FIG. 2D) or with […] of piceatannol (FIG. 2E) were analyzed for phosphorylation of Syk (FIG. 2D) and PLCγ1 (FIG. 2E). To investigate the functional importance of these signaling intermediates in the regulation of antigen uptake by matured DC activated with B7-DC XAb, varying concentrations of pharmacologic inhibitors were used to block the activity of p72Syk (piceatannol) and PLCγ1 (U73122) (FIGS. 2F and 2G, respectively). Antigen uptake was assessed by pulsing cultures with FITC-conjugated ovalbumin and measuring intracellular fluorescence 16 hours later in CD11c positive cells by flow cytometry.\nHuman DC were generated from peripheral blood CD14^+ monocytes by incubation in GM-CSF and IL-4 for five days. […] All cultures were pulsed with OVA-FITC at the time of treatment with IgM antibodies, and […] OVA-FITC was assessed 24 hours later by flow cytometry.\nFIGS. 4A and 4B are a series of plots showing the effects of kinase inhibitors on OVA-FITC uptake by matured human DC, as determined by flow cytometry. […] All cells were pulsed with OVA-FITC at the time of treatment with IgM antibody, and CD11c+ cells were analyzed for OVA-FITC uptake 24 hours later by flow cytometry. […]\nAntigen uptake experiments were carried out as described previously (Radhakrishnan et al. (2005) Proc. Natl. Acad. Sci. U.S.A. 102:11438-11443). […] The matured cells were incubated with ovalbumin labeled with FITC or APC and control antibody or B7-DC XAb for two hours, washed and analyzed by FACSCALIBUR™ (Becton Dickinson). […]"}, "[2]": {"test_system": "CD11c+ draining lymph node cells", "test": "In vivo antigen uptake by CD11c+ draining lymph node cells", "design": "species or system mouse", "settings": "systemic antibody", "procedure": "FIG. 7A is a pair of pictures of western blot analysis for phosphorylation of DAP12 and Syk in B7-DC XAb or control antibody-treated mouse DC, as indicated. FIG. 7B is a graph plotting percent CD11c+ inguinal lymph node cells in mice after OVA-FITC was introduced into the footpads of mice treated systemically with isotype control antibody or the MTAb B7-DC XAb (n=3/group). Cells were analyzed by flow cytometry 24 hours after OVA-FITC introduction.\nAntigen uptake experiments were carried out as described previously (Radhakrishnan et al. (2005) Proc. Natl. Acad. Sci. U.S.A. 102:11438-11443). Day 5 DC were matured with TLR ligand CpG-ODN for mouse DC, or with pI:C for human DC. The matured cells were incubated with ovalbumin labeled with FITC or APC and control antibody or B7-DC XAb for two hours, washed and analyzed by FACSCALIBUR™ (Becton Dickinson). In studies involving inhibitors, cells were pretreated 30 minutes as indicated or at 10 μM concentration prior to addition of control antibody or B7-DC XAb. In vivo antigen uptake assays involving wild type or TREM-2−/− mice were carried out by intravenous injection of 10 μg of control antibody or B7-DC XAb on three consecutive days (days −1, 0 and +1). Ovalbumin coupled to FITC was injected in the right foot pad at 1 mg/ml in PBS at 100 μA volume. […] The data are expressed as percent green cells (ovalbumin-FITC) that are positive for CD11c."}, "human DC": {"test_system": "human DC", "test": "Calcium flux assay, human DC", "type": "cell-based", "procedure": "Changes in the levels of intracellular Ca^2+ were assessed in Indol-loaded cells by flow cytometry as described previously (Takahashi et al. (2005) J. Exp. Med. 201:647-657). Briefly, 5×10^6 DC/ml were incubated with 5 μM Indo-1 (Calbiochem) at 37° C. for 30 minutes. The cells were washed twice in serum free media and resuspended at 10^6/ml in PBS containing 0.5% BSA. The samples were analyzed by flow cytometry using a UV laser. Violet (390 nm) and blue (500 nm) fluorescence emissions were recorded. Baseline was recorded for two minutes. Antibody was added to the cell suspension (10 μg/ml of control antibody or B7-DC XAb) and the measurements were recorded for 8 additional minutes. In blocking experiments, mouse or human DC were pre-incubated with 10 μg/ml of purified anti-mouse B7-DC antibody (TY-25) or purified anti-human B7-DC antibody (MIH18) for 15 minutes, followed by collection of data for calcium flux as described above. Ionomycin added at 1 μg/ml after 2 minutes served as a positive control. The blue to violet ratio was calculated using FlowJo software (Tristar, Ashland, Oreg.)."}, "B7-DC (PD-L2)": {"test_system": "B7-DC (PD-L2)", "settings": "cited from earlier work"}}, "note": "Entries after “also recorded” stand apart in the source; their conditions may differ."}
{"substance": "B7-DC XAb: human monoclonal IgM from a Waldenstrom's macroglobulinemia patient that binds and cross-links B7-DC on DC", "values": [{"measurement": "antigen uptake by matured DC", "setting": "[1]", "value": "regaining the ability to take up antigen; also recorded: take up ovalbumin when activated"}, {"measurement": "uptake of labeled ovalbumin by CD11c+ lymph node cells", "setting": "[2]; TREM-2 KO mice", "value": "had no effect on uptake"}, {"measurement": "uptake of labeled ovalbumin in lymph nodes", "setting": "[2]; wild type mice", "value": "significantly activated uptake of labeled ovalbumin"}, {"measurement": "intracellular calcium signal", "setting": "human DC", "value": "prolonged calcium signals"}, {"measurement": "binding to B7-DC on the surface of DC", "setting": "B7-DC (PD-L2)", "value": "binds"}]}
